According to PMC10743653, “Combined In Silico and In Vitro Analyses to Assess the Anticancer Potential of Thiazolidinedione–Thiosemicarbazone Hybrid Molecules” (International Journal of Molecular Sciences, 2023):

Columns and labels:
Assay type in all cases: cell-based, human
CCD 841 CoTr cells = assay: Nitric oxide measurement (Griess), CCD 841 CoTr; details: 200 μg/mL
Protocol: (§1) Nitrate, i.e., a stable end product of NO, was measured in culture supernatants with a spectrophotometric method based on the Griess reaction. Culture supernatants were collected from the cell cultures treated with specific concentrations of the tested compounds (25, 75, 150, and 200 μg/mL, respectively). Briefly, 100 μL of the culture supernatant was placed in 96-well flat-bottomed plates in triplicate and incubated with 100 μL of Griess reagent (1% sulfanilamide/0.1% N-(1-naphthyl)ethylenediamine dihydrochloride) in 3% H3PO4 at room temperature for 10 min. The optical density was measured at 550 nm using a microplate reader. A standard curve was prepared using 0.5–25 μM sodium nitrite (NaNO2) for calibration.

HT29 cells [1] = assay: Nitric oxide measurement (Griess), HT29; details: HT29, 200 μg/mL
Protocol: as §1

HT29 cells [2] = assay: MTT assay, HT29; details: for IC50: Homo sapiens, HT-29, HT29, MTT, 24 h treatment, mean ± SD; for SI (selectivity index): IC50 CCD 841 CoTr divided by IC50 HT29
Protocol: The effects of TZD–TSCs 2–5 on the cellular viability of a panel of cell lines were investigated through an 3-(4,5-dimethylthiazol-2-yl)-2,5-diphenyl-2H-tetrazolium bromide (MTT) assay, following a 24 h treatment with the compounds. The panel consisted of three solid tumor cells: T98G (glioblastoma multiforme), HepG2 (hepatocellular carcinoma, epithelial), and HT29 (colon adenocarcinoma, epithelial), as well as noncancerous cells CCD 841 CoTr (normal colon, epithelial).
Primary single dose screenings of TZD–TSCs 2–5 were performed at a concentration of 200 μg/mL, and those that elicited a greater than 80% inhibition of cell proliferation were analyzed at several concentrations, to find their half-maximal inhibitory concentration (IC50). The IC50 values, reported as the mean ± SD in Table 2, indicate the concentration of the tested compound that inhibits the growth/viability of the cancer cell population by 50%. In this specific case of an MTT assay, which measures the activity of mitochondrial dehydrogenases (as an indicator of cell viability), the IC50 values stand for the concentration that inhibits the metabolic activity of cells by 50%.
Human colon adenocarcinoma cells, HT29 (ATCC no. HTB-38), derived from a grade I tumor, were cultured in roswell park memorial institute Medium (RPMI) 1640 medium, supplemented with 10% fetal calf serum (FCS) (GibcoTM, Paisley, UK) and antibiotics (100 U/mL penicillin and 100 μg/mL streptomycin) (Sigma, St. Louis, MO), at 37 °C in a humidified atmosphere with 5% CO2. Human normal colon epithelial cells, CCD 841 CoTr (ATCC no. CRL-1807), were cultured in RPMI 1640 + dulbecco’s modified eagle medium (DMEM) (1:1) medium (Sigma, St. Louis, MO), supplemented with 10% FCS and antibiotics, at 34 °C in a 5% CO2/95% air atmosphere. Human glioblastoma T98G cells were cultured in Dulbecco’s Modified Eagle’s Medium (DMEM) (Sigma Aldrich, St. Louis, MO, USA), supplemented with 10% fetal bovine serum (FBS), penicillin (100 U/mL), and streptomycin (100 μg/mL). Human hepatocellular carcinoma cells, HepG2, were maintained in Eagle’s Minimum Essential Medium, supplemented with 10% FBS, penicillin (100 U/mL), and streptomycin (100 μg/mL).
After 24 h of incubation of the cells with the tested compounds in 100 μL of culture medium, MTT solution (5 mg/mL, 25 μL/well) was added and incubated for an additional 3 h. The purple crystals of formazan which formed in the medium were solubilized overnight in 10% sodium dodecyl sulphate (SDS) in a 0.01 M HCl mixture. The product was quantified spectrophotometrically by measuring its absorbance at 570 nm using an Emax Microplate Reader (Molecular Devices Corporation, Menlo Park, CA, USA).

HepG2 cells = assay: Cell cycle analysis (image cytometry, DAPI); details: 24 h at IC50 concentration (2.97 μM); control 6.02 ± 0.21%; mean ± SD
Protocol: HDAC inhibitors, in combination therapy with PPARγ agonists, exert synergistic/additive cytotoxic effects on cancer cells, resulting in proliferation arrest and increased cancerous cell apoptosis.
HepG2 cells were seeded on 6-well culture plates (Corning Inc., NY, USA) at the density of 1 × 10^5 cells/mL and cultured in the respective medium at 37 °C in a humidified atmosphere of 5% CO2. When the cells reached approximately 80–90% confluence, they were treated with 3, at a concentration of IC50, for 24 h. Subsequently, the cells were detached with trypsine, suspended in 250 μL of lysis buffer (Solution 10), supplemented with DAPI (10 μg/mL), and incubated for 5 min at 37 °C. Next, stabilization buffer (Solution 11) was added and the obtained cell suspension was applied on a NC slide and analyzed using a NucleoCounter NC-3000 Image Cytometer equipped with NucleoView software (https://chemometec.com/software/nucleoview/ (accessed on 20 November 2023). Experiments were repeated three times and the measurements in each experiment were run in duplicate.

Row | SMILES | NO production, [NO2^−] (CCD 841 CoTr cells) [µM] | NO production, [NO2^−] (HT29 cells [1]) [µM] | IC50 (HT29 cells [2]) [µM] | SI (selectivity index) (HT29 cells [2]) | Percentage of HepG2 cells in sub-G1 phase (HepG2 cells) [%]
1 | O=C(C=C1SC(=O)NC1=O)Oc1ccccc1C=NNC(=S)Nc1ccccc1Cl [TZD–TSC 2] | 0.566 | 0.272 | 43.9 ± 1.74 | 1.02 | 
2 | O=C(C=C1SC(=O)NC1=O)Oc1ccccc1C=NNC(=S)Nc1cccc(Cl)c1 [TZD–TSC 3] | 0.492 | 0.201 | 78.3 ± 5.47 | 1.28 | 40.36 ± 3.11
